Measurements taken from ChEMBL document CHEMBL1201862, “PubChem BioAssay data set” (2004).
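Grown in 96-well plates, cells were treated for 48 hours with each compound at five concentrations. Insufficient inhibition: endpoint recorded as highest concentration tested. GI50: concentration for 50% inhibition of growth.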 Activity calls are given as the source filed them. No stated cut-off is given here; in the data, active = GI50 up to about 1.1 µM and inactive = higher.

How the values were obtained:
Assay in all cases: DTP human tumour cell line panel, 48 h
A498 = tested on: A498
ACHN = tested on: ACHN
CAKI-1 = tested on: CAKI-1
CCRF-CEM = tested on: CCRF-CEM
COLO 205 = tested on: COLO 205
DLD-1 = tested on: DLD-1
DMS-114 = tested on: DMS-114
EKVX = tested on: EKVX
HCT-15 = tested on: HCT-15
HL-60 = tested on: HL-60
HOP-18 = tested on: HOP-18
HOP-92 = tested on: HOP-92
HT-29 = tested on: HT-29
IGROV-1 = tested on: IGROV-1
K562 = tested on: K562
KM-20L2 = tested on: KM-20L2
LOX IMVI = tested on: LOX IMVI
LXFL 529 = tested on: LXFL 529
M14 = tested on: M14
M19-MEL = tested on: M19-MEL
MOLT-4 = tested on: MOLT-4
Malme-3M = tested on: Malme-3M
NCI-H226 = tested on: NCI-H226
NCI-H23 = tested on: NCI-H23
NCI-H460 = tested on: NCI-H460
NCI-H522 = tested on: NCI-H522
OVCAR-3 = tested on: OVCAR-3
OVCAR-8 = tested on: OVCAR-8
RPMI-8226 = tested on: RPMI-8226
RXF 631 = tested on: RXF 631
SF-268 = tested on: SF-268
SF-295 = tested on: SF-295
SF-539 = tested on: SF-539
SK-MEL-28 = tested on: SK-MEL-28
SK-MEL-2 = tested on: SK-MEL-2
SK-MEL-5 = tested on: SK-MEL-5
SK-OV-3 = tested on: SK-OV-3
SN12C = tested on: SN12C
SNB-19 = tested on: SNB-19
SNB-75 = tested on: SNB-75
SNB-78 = tested on: SNB-78
SW-620 = tested on: SW-620
TK-10 = tested on: TK-10
U-251 = tested on: U-251
UACC-62 = tested on: UACC-62
UO-31 = tested on: UO-31
XF498 = tested on: XF498
786-0 = tested on: 786-0
A549 = tested on: A549
DMS-273 = tested on: DMS-273
HCC 2998 = tested on: HCC 2998
HCT-116 = tested on: HCT-116
HOP-62 = tested on: HOP-62
KM12 = tested on: KM12
OVCAR-4 = tested on: OVCAR-4
OVCAR-5 = tested on: OVCAR-5
RXF 393 = tested on: RXF 393
SR = tested on: SR
UACC-257 = tested on: UACC-257

Measured: GI50

O=c1ccc2cc3ccc4cccc5ccc(c2o1)c3c45
inactive: A498 16 µM | ACHN 12.5 µM | CAKI-1 > 100 µM | CCRF-CEM > 100 µM | COLO 205 > 100 µM | DLD-1 > 100 µM | DMS-114 33 µM | EKVX > 100 µM | HL-60 > 100 µM | HOP-18 5.7 µM | HOP-92 5.24 µM | HT-29 22.2 µM | IGROV-1 > 100 µM | K562 > 100 µM | KM-20L2 > 100 µM | LOX IMVI 12.1 µM | LXFL 529 45 µM | M14 > 100 µM | M19-MEL > 100 µM | MOLT-4 > 100 µM | Malme-3M > 100 µM | NCI-H226 19.7 µM | NCI-H23 67.8 µM | NCI-H460 13.1 µM | NCI-H522 25.9 µM | OVCAR-3 > 10 µM | OVCAR-8 23.2 µM | RPMI-8226 > 100 µM | RXF 631 80 µM | SF-268 28.8 µM | SF-295 33 µM | SF-539 9.64 µM | SK-MEL-28 > 100 µM | SK-MEL-2 > 100 µM | SK-MEL-5 40.4 µM | SK-OV-3 13.6 µM | SN12C 25 µM | SNB-19 37.3 µM | SNB-75 24.7 µM | SNB-78 > 100 µM | SW-620 31.8 µM | TK-10 > 100 µM | U-251 13.1 µM | UACC-62 47 µM | UO-31 14.3 µM | XF498 12 µM
> 100 µM: HCT-15

CCOC(=O)NC(=O)c1cn(CCN2CCN(C(=O)NCCCCCCNC(=O)N3CCN(CCn4cc(C(=O)NC(=O)OCC)c(=O)[nH]c4=O)CC3)CC2)c(=O)[nH]c1=O
> 100 µM: HCT-15
inactive: 786-0 > 100 µM | A498 > 100 µM | A549 > 100 µM | ACHN > 100 µM | COLO 205 > 100 µM | DMS-114 > 100 µM | DMS-273 > 100 µM | EKVX > 100 µM | HCC 2998 > 100 µM | HCT-116 > 100 µM | HL-60 > 100 µM | HOP-18 > 100 µM | HOP-62 > 100 µM | HOP-92 > 100 µM | HT-29 > 100 µM | IGROV-1 > 100 µM | K562 > 100 µM | KM-20L2 > 100 µM | KM12 > 100 µM | LOX IMVI > 100 µM | LXFL 529 > 100 µM | M14 > 100 µM | M19-MEL > 100 µM | Malme-3M > 100 µM | NCI-H23 > 100 µM | NCI-H460 > 100 µM | NCI-H522 > 100 µM | OVCAR-3 > 100 µM | OVCAR-4 > 100 µM | OVCAR-5 > 100 µM | OVCAR-8 > 100 µM | RPMI-8226 > 100 µM | RXF 393 > 100 µM | RXF 631 > 100 µM | SF-268 > 100 µM | SF-295 > 100 µM | SF-539 > 100 µM | SK-MEL-28 > 100 µM | SK-MEL-2 > 100 µM | SK-MEL-5 > 100 µM | SK-OV-3 > 100 µM | SN12C > 100 µM | SNB-19 > 100 µM | SNB-75 > 100 µM | SNB-78 > 100 µM | SR > 100 µM | SW-620 > 100 µM | TK-10 > 100 µM | U-251 > 100 µM | UACC-257 > 100 µM | UACC-62 > 100 µM | UO-31 > 100 µM | XF498 > 100 µM
